# Entries after “also recorded” stand apart in the source; their conditions may differ. Where two headings read alike, the source gives them in different places.
# Tests used:
# [1] = molecular target: T1, Pseudomonas fluorescens KMO (PfKMO) (Pseudomonas fluorescens, UniProt Q84HF5, C252S/C461S); experiment: biochemical
# T1 construct: made in house; host or cells: E. coli BL21 (DE3)
# How it was run: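 NADPH consumption followed at 340 nm, initial rates from linear fits, triplicate. IC50 from % inhibition vs inhibitor concentration fitted to the Morrison equation.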
# [2] = molecular target: T2, Homo sapiens KMO (HsKMO) (Homo sapiens, UniProt O15229); experiment: KMO inhibition assay, NADPH oxidation at 340 nm (HsKMO); assay type: biochemical
# T2 construct: GST; made in house
# T2 sequence (O15229 whole entry): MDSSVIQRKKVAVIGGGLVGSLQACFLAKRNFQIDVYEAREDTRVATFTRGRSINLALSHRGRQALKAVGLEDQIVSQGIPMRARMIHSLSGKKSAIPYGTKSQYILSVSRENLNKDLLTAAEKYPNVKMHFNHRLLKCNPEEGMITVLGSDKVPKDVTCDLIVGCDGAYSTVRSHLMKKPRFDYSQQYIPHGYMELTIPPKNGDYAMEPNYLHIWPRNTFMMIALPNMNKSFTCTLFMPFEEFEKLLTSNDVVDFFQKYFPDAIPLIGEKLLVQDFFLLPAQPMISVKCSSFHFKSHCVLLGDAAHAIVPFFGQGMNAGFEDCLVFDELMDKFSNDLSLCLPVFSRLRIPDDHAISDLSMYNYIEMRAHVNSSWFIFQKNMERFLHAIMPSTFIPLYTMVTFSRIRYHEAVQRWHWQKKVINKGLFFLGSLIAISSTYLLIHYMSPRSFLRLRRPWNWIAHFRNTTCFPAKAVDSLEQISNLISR
# [3] = test system: K562 cells; experiment: Competition assay for uptake of riboflavin; assay type: cell-based, Human; design: key to Mean FL2-A, compound only: relative fluorescence units; details: for Mean FL2-A, compound + riboflavin (RF): 1 µM riboflavin plus 100 µM compound; for Inhibition of riboflavin uptake: 1 µM riboflavin; for Inhibition of riboflavin uptake / Mean FL2-A, compound only: compound 100 µM
# Experimental: Riboflavin transporters are equilibrative rather than concentrative, and the uptake of the inhibitors would be hard to measure directly. To assess whether the KMO inhibitors were substrates for riboflavin transporters, we assessed their ability to compete with riboflavin for uptake into cells. Riboflavin is intensely fluorescent, and is taken up in human cells by three main transporters SLC52A1, SLC52A2 and SLC52A3[28]. […] Consequently, we incubated cells with 1 μM riboflavin in the absence and presence of the various KMO inhibitors. There was a background fluorescence of some 100 relative fluorescence units. […] The data are summarised in Fig. 3c, and are consistent with the view that at least some of the KMO inhibitor uptake is likely to go via riboflavin transporters.
# Supplementary Figure 15. A. Uptake of riboflavin into K562 cells. K562 cells were suspended in Dulbecco's phosphate-buffered saline (DPBS) supplemented with 5 mM glucose + 1 % fetal bovine serum (FBS) at a density of 0.5 x 10^6 cells/mL.
# Compounds were added to Eppendorf tubes and DMSO removed through drying (vacuum centrifuge). Riboflavin was present at 1 µM and inhibitor 1 or prodrugs at 100 µM. 500 µL cells were added to Eppendorf tubes (containing the compound(s) of interest) and fluorescence measured immediately (excitation 488 nm, emission 525 ± 25nm) in a SONY SH800 flow cytometer over 300 s. Cells were maintained at 37 ℃ throughout in a water bath. Each symbol is the mean fluorescence of ~30 cells observed over a period of 1s. Purple, 1 µM riboflavin only; Red, 100 µM compound only; Blue, 1 µM riboflavin plus 100 µM compound; Green, no additions (control).
# Note that the external concentration of riboflavin was rather critical, as the riboflavin transporters also catalyse exchange reactions with their various substrates. B.
# Structures of KMO inhibitors and prodrugs and riboflavin, and their maximum common substructures (shown as a blue oval on 1). C. Gating strategy employed in this assay. Gate applied to K562 cell population is marked with a black line. SSC, side scatter, FSC, Forward scatter.
# (1 picture or pasted object on this page, not shown here)
# [4] = Stability in mouse hepatic microsomes; details: for half-life at 1 µM: mouse, pooled liver microsomes
# Experimental: 3.6.3 Compound stability in mouse hepatic microsomes and rat hepatocytes
# A microsomal stability assay was performed as described in the BioFocus Standard
# Operating Procedure ADME-SOP-83, using pooled hepatic mouse
# Test and control compounds (midazolam,
# dextromethorphan), were prepared in DMSO and incubated at an initial concentration
# in the presence of the cofactor, NADPH (1 mM). Aliquots were removed at 0, 5, 10,
# 20 and 40 minutes for termination of reactions and compound extraction with ACN
# containing an analytical internal standard. Samples were centrifuged and the
# supernatant fractions analysed for parent compound by mass spectrometry (LC-
# MS/MS). The amount of compound remaining (expressed as %) was determined from
# the MS response in each sample relative to that in the T = 0 samples (normalised for
# internal standard). Ln plots of the % remaining were used to determine the half-life
# the slope of the Ln % remaining vs time curve. The in vitro intrinsic clearance Clint
# [5] = Kinetic solubility in PBS, pH 7.4 (2% DMSO); assay type: physicochemical; details: for solubility at 2 h: PBS with 2% DMSO, pH 7.4, aqueous buffer, kinetic from dmso stock, PBS, pH 7.4 (2% DMSO)
# [6] = Half-life Mean, mouse hepatic microsomes
# [7] = Half-life n=1, mouse hepatic microsomes
# [8] = Half-life n=2, mouse hepatic microsomes
# T1 sequence (Q84HF5 whole entry C252S/C461S): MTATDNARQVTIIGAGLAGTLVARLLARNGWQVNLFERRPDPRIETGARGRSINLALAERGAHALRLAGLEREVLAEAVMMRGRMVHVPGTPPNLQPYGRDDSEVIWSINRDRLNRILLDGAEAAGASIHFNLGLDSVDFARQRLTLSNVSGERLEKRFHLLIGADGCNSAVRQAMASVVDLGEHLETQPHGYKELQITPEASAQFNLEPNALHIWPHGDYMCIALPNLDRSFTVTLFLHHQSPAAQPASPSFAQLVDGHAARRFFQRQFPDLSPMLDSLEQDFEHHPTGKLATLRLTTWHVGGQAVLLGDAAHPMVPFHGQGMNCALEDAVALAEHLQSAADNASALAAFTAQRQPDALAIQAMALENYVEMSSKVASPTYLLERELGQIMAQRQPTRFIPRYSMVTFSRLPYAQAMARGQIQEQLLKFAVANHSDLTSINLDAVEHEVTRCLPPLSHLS
Compound,IC50 [1],IC50 [2],"Mean FL2-A, compound + riboflavin (RF) ([3]; time 1)","Mean FL2-A, compound + riboflavin (RF) ([3]; time 2)","Mean FL2-A, compound + riboflavin (RF) ([3]; time 3)",Inhibition of riboflavin uptake [3],"Mean FL2-A, compound only ([3]; time 1)","Mean FL2-A, compound only ([3]; time 2)","Mean FL2-A, compound only ([3]; time 3)",Mean intrinsic clearance ([4]; mouse hepatic microsomes),"half-life at 1 µM [4, 6]","half-life at 1 µM [4, 7]","half-life at 1 µM [4, 8]",Kinetic solubility (in words) [5],solubility at 2 h ([5]; read-out: Solubility Mean),solubility at 2 h ([5]; read-out: Solubility n=1),solubility at 2 h ([5]; read-out: Solubility n=2)
COC(=O)CN1C(=O)COc2cc(C)c(Cl)c(C)c21 [1a],> 500 µM,~500 µM,66.6886,77.0559,76.3441,inhibit riboflavin uptake,62.8068,65.3939,65.9534,–,–,–,–,–,–,–,–
CCOC(=O)CN1C(=O)COc2cc(C)c(Cl)c(C)c21 [1b],> 300 µM,> 500 µM,68.4214,59.9856,60.5407,inhibit riboflavin uptake; also recorded: higher inhibition,59.4089,74.4694,63.9701,–,–,–,–,–,–,–,–
Cc1cc2c(c(C)c1Cl)N(CC(=O)OC(C)C)C(=O)CO2 [1c],> 300 µM,> 300 µM,59.0947,60.924,73.4972,inhibit riboflavin uptake,60.7763,66.3048,65.3995,–,–,–,–,–,–,–,–
"Cc1cc2c(c(C)c1Cl)N(Cc1nn[nH]n1)C(=O)CO2 [1h, 6-chloro-5,7-dimethyl-4-(2H-tetrazol-5-ylmethyl)-1,4-benzoxazin-3-one]",17 ± 0.43 µM,1.28 ± 0.08 µM,–,–,–,–,–,–,–,–,–,–,–,–,–,–,–
"Cc1cc2c(c(C)c1Cl)N(CC(=O)O)C(=O)CO2 [compound 1, (6-chloro-5,7-dimethyl-3-oxo-2,3-dihydro-4H-1,4-benzoxazin-4-yl) acetic acid]",–,–,57.8501,68.195,76.5831,inhibit riboflavin uptake,58.5977,60.0072,67.7034,< 28 µL/min/mg microsome protein,> 1.67 h,> 1.67 h,> 1.67 h,good,193 µM,191 µM,194 µM
"Oc1ccc(-c2csc3nc(-c4ccccc4)nn23)c(O)c1 [compound 3, 4-(2-phenyl[1,2,4]triazolo[5,1-b][1,3]thiazol-6-yl)benzene-1,3-diol]",74.7 ± 8 µM,2.3 µM,–,–,–,–,–,–,–,49 µL/min/mg microsome protein,0.983 h,0.8 h,1.15 h,–,67 µM,68 µM,65 µM
"Cn1c(C(=O)N[C@@H](C(=O)O)c2ccccc2)cc2cc(F)ccc21 [compound 5, (R)-2-(5-fluoro-1-methyl-1H-indole-2-carboxamido)-2-phenylacetic acid]",123 ± 8 µM,55.3 µM,–,–,–,–,–,–,–,< 28 µL/min/mg microsome protein,> 1.67 h,> 1.67 h,> 1.67 h,–,185 µM,186 µM,183 µM
"CC(CSc1ccc(Cl)cc1)C(=O)O (centres unmarked) [compound 6, 3-[(4-chlorophenyl)thio]-2-methylpropanoic acid]",85.6 ± 4.4 µM,68.6 µM,–,–,–,–,–,–,–,< 28 µL/min/mg microsome protein,> 1.67 h,> 1.67 h,> 1.67 h,–,187 µM,186 µM,188 µM

# Source: PMC6656724 (Communications Biology, 2019)
